Earlier results, collected in patent publication US20040142388A1, “Method for detecting chronic dementia diseases, and corresponding VGF peptides and detection reagents” (priority 2001, published 2004).

Test system: PC12 cell line
Conditions: rat pheochomozytome cell line (PC12), stimulation with nerve growth factor

## NGF: important growth factor which regulates the differentiation of the peripheral and central nervous system
  increase in the concentration of VGF: 12- to 14 fold
